Measured values as given in patent US4026888A, “Certain derivatives of particular 3-thiolated cephalosporins” (priority 1976, dated 1977).
≈ marks a conversion by molar mass, not a printed value. Where two headings read alike, the source gives them in different places.

Tests used:
P. mirabilis A9900 [1] = assay: Oral PD50 in mice; type: in vivo; settings: oral, mice treated at 1 and 3.5 hours post-challenge
K. pneumoniae A9977 = assay: Oral PD50 in mice; type: in vivo; settings: Klebsiella pneumoniae, A9977; oral; mice treated at 1 and 3.5 hours post-challenge; read-out: PD50
Method: (§1) Comparative Oral PD50 Values of
(§2) BL-S640 Derivatives in Mice
(§3) *Mice were treated at 1 and 3.5 hours post-challenge.

S. pyogenes A9604 = assay: Oral PD50 in mice; type: in vivo; settings: Streptococcus pyogenes, mice treated at 1 and 3.5 hours post-challenge
Method: as §1, §2, §3

E. coli A15119 = assay: Oral PD50 in mice; type: in vivo; settings: Escherichia coli, A15119, po, 3.5 h, read-out: PD50
Method: as §1, §2, §3

P. mirabilis A9707 = assay: Oral PD50 in mice; type: in vivo; settings: Proteus mirabilis, mice treated at 1 and 3.5 hours post-challenge
Method: as §1, §2, §3

[2] = Urinary recovery after IM administration to rats; type: in vivo; settings: rat, urine, 50 mg/kg, IM 50 mg./kg., read-out: Urinary Recovery, Percentage of Administered Dose Recovered
Method: Urinary Recovery After IM
Administration of 50 and 10 mg./kg. to Rats
The compounds were prepared in 0.01% phosphate buffer. BL-S640 was used as
Urinary Recovery after IM
Administration of 50 mg./kg. to Rats
(§4) The compounds were prepared in 0.01% phosphate buffer.

[3] = Mouse blood levels after oral administration; type: in vivo
Method: Mouse Blood Levels After Oral
Administration Of 100 mg./kg. Body Weight
The compounds were prepared in
Tween - carboxymethylcellulose
and 8 mice were used for each
Mouse Blood Levels After PO
Administration of 100 mg./kg. Body Weight
The compounds were prepared in Tween-CMC. BL-S640
The compounds were prepared in Tween-CMC. Values are the average of two

[4] = Mouse blood levels after intramuscular administration; type: in vivo; settings: IM 10 mg./kg.
Method: Mouse Blood Levels After Intramuscular Administration
of 10 mg./kg. Body Weight
The compounds were dissolved in 0.01% phosphate buffer.
Mouse Blood Levels After IM
Administration of 10 mg./kg. Body Weight
The compounds were prepared in 0.01% phosphate
as §4

Str. pyogenes A9604 = assay: Antibiotic activity in nutrient broth (MIC); type: cell-based; settings: 45% AAB + 5% serum + 50% broth, derivatives adjusted for BL-S640 content
From the text: (§5) Antibiotic Activity In Nutrient Broth
* 45% AAB+ 5% serum+ 50% broth listed above.
(§6) ** Dilution of overnight broth culture.
(§7) Antibiotic Spectrum Nutrient Broth
* 45% AAB + 5% serum + 50% broth
(§8) Antibiotic Spectrum in Nutrient Broth
*45% AAB + 5% serum + 50% broth listed above.

P. mirabilis A9900 [5] = assay: IM PD50 in mice; type: in vivo; settings: Proteus mirabilis
From the text: Comparative IM PD50 Values of
as §2

Ent. cloacae A9659 = assay: Antibiotic activity in nutrient broth (MIC); type: cell-based; settings: derivatives adjusted for BL-S640 content
From the text: as §5, §6, §7, §8

S. aureus BX1633 A9606 = assay: Antibiotic activity in nutrient broth (MIC); type: cell-based; settings: derivatives adjusted for BL-S640 content
From the text: as §5, §6, §7, §8

Ps. aeruginosa A9843A = assay: Antibiotic activity in nutrient broth (MIC); type: cell-based; settings: Pseudomonas aeruginosa
From the text: as §5, §6, §7, §8

E. coli Juhl A15119 = assay: Antibiotic activity in nutrient broth (MIC); type: cell-based; settings: derivatives adjusted for BL-S640 content
From the text: as §5, §6, §7, §8

Ser. marcescens A20019 = assay: Antibiotic activity in nutrient broth (MIC); type: cell-based; settings: Serratia marcescens, derivatives adjusted for BL-S640 content
From the text: as §5, §6, §7, §8

Pr. mirabilis A9900 = assay: Antibiotic activity in nutrient broth (MIC); type: cell-based; settings: Proteus mirabilis, inoculum 10^-4, derivatives adjusted for BL-S640 content
From the text: as §5, §6, §7, §8

S. aureus Smith A9537 = assay: Antibiotic activity in nutrient broth (MIC); type: cell-based; settings: + 50% serum, derivatives adjusted for BL-S640 content
From the text: as §5, §6, §7, §8

[6] = mouse, blood, im, 10 mg/kg, Example 3, average of 3 experiments, read-out: Blood Levels
[7] = mouse, blood, im, 10 mg/kg, Table III, 0.01% phosphate buffer, read-out: Mouse Blood Levels

## N[C@@H](C(=O)N[C@@H]1C(=O)N2C(C(=O)O)=C(CSc3cnn[nH]3)CS[C@H]12)c1ccc(O)cc1 [BL-S640, 7-[D-α-amino-α-(p-hydroxyphenyl)acetamido]-3-(1,2,3-triazol-5-ylthiomethyl)-3-cephem-4-carboxylic acid, reference compound]
P. mirabilis A9900 [1]; Proteus mirabilis, A9900, po, 3.5 h, read-out: PD50
  ED50: 7.2 mg/kg
P. mirabilis A9900 [1]
  PD50: 9.6 mg./kg./treatment
K. pneumoniae A9977
  ED50: 1.6 mg/kg
S. pyogenes A9604
  ED50: 0.4 mg/kg
E. coli A15119; oral, mice treated at 1 and 3.5 hours post-challenge
  ED50: 4.1 mg/kg
E. coli A15119
  ED50: 1.4 mg/kg
P. mirabilis A9707
  ED50: 2.4 mg/kg
[2]; 0-6 hr
  dose excreted at 6 h: 44.2%
[2]; 0-24 hr
  dose excreted at 24 h: 47.5%
[2]; 6-24 hr
  dose excreted at 24 h: 3.3%
[3]; Example 3, PO 100 mg./kg., 1 hr, Tween-CMC, average of two experiments
  Blood Levels: 42400 ng/mL
[3]; Table II, oral 100 mg./kg., 0.5 hr, Tween-carboxymethylcellulose, 8 mice, 100 mg/kg, 30 min
  Blood Level: 57400 ng/mL
[3]; Table II, oral 100 mg./kg., 1 hr, Tween-carboxymethylcellulose, 8 mice, 100 mg/kg, 60 min
  Blood Level: 47000 ng/mL
[3]; Table II, oral 100 mg./kg., 2 hr, Tween-carboxymethylcellulose, 8 mice, 100 mg/kg, 120 min
  Blood Level: 29500 ng/mL
[3]; Table II, oral 100 mg./kg., 3.5 hr, Tween-carboxymethylcellulose, 8 mice, 100 mg/kg, 210 min
  Blood Level: 10900 ng/mL
[3]; mouse, blood, po, 100 mg/kg, Example 3, PO 100 mg./kg., 0.5 hr, Tween-CMC, average of two experiments, read-out: Blood Levels
  concentration at 0.5 h: 48700 ng/mL
[3]; mouse, blood, po, 100 mg/kg, Example 3, PO 100 mg./kg., 2 hr, Tween-CMC, average of two experiments, read-out: Blood Levels
  concentration at 2 h: 24000 ng/mL
[3]; mouse, blood, po, 100 mg/kg, Example 3, PO 100 mg./kg., 3.5 hr, Tween-CMC, average of two experiments, read-out: Blood Levels
  concentration at 3.5 h: 10100 ng/mL
[3]; mouse, blood, po, 100 mg/kg, Table II, oral 100 mg./kg., 0.5 hr, Tween-carboxymethylcellulose, 8 mice, read-out: Blood Level
  concentration at 0.5 h: 50500 ng/mL
[3]; mouse, blood, po, 100 mg/kg, Table II, oral 100 mg./kg., 1 hr, Tween-carboxymethylcellulose, 8 mice, read-out: Blood Level
  concentration at 1 h: 39000 ng/mL
[3]; mouse, blood, po, 100 mg/kg, Table II, oral 100 mg./kg., 2 hr, Tween-carboxymethylcellulose, 8 mice, read-out: Blood Level
  concentration at 2 h: 24500 ng/mL
[3]; mouse, blood, po, 100 mg/kg, Table II, oral 100 mg./kg., 3.5 hr, Tween-carboxymethylcellulose, 8 mice, read-out: Blood Level
  concentration at 3.5 h: 9600 ng/mL
[4]; Example 2, 1 hr, 0.01% phosphate buffer, 16 or 32 mice
  Blood Levels: 9500 ng/mL
[4]; [6]
  concentration at 0.25 h: 12700 ng/mL
  concentration at 1.5 h: 5700 ng/mL
[4]; mouse, blood, im, 10 mg/kg, Example 3, 0.5 hr, average of 3 experiments, read-out: Blood Levels
  concentration at 0.5 h: 11500 ng/mL
[4]; mouse, blood, im, 10 mg/kg, Example 3, 1 hr, average of 3 experiments, read-out: Blood Levels
  concentration at 1 h: 8000 ng/mL
[4]; [7]
  concentration at 0.25 h: 16300 ng/mL
  concentration at 1.5 h: 6300 ng/mL
Str. pyogenes A9604; Streptococcus pyogenes, A9604, inoculum 10^-3, read-out: MIC
  MIC: 0.06 µg/mL
Str. pyogenes A9604; inoculum 10^-3
  MIC: 0.03 µg/mL
P. mirabilis A9900 [5]
  ED50: 1.6 mg/kg
Ent. cloacae A9659; Enterobacter cloacae, A9659, inoculum 10^-4, read-out: MIC
  MIC: 63 µg/mL (≈ 136 µM)
Ent. cloacae A9659; inoculum 10^-4
  MIC: 32 µg/mL (≈ 69.2 µM)
S. aureus BX1633 A9606; Staphylococcus aureus, BX1633A9606, inoculum 10^-2, read-out: MIC
  MIC: 4 µg/mL (≈ 8.65 µM)
S. aureus BX1633 A9606; inoculum 10^-2
  MIC: 2 µg/mL (≈ 4.32 µM)
Ps. aeruginosa A9843A
  MIC: > 125 µg/mL
E. coli Juhl A15119; Escherichia coli, JUHLA15119, inoculum 10^-4, read-out: MIC
  MIC: 1 µg/mL (≈ 2.16 µM)
E. coli Juhl A15119; inoculum 10^-4
  MIC: 0.5 µg/mL (≈ 1.08 µM)
Ser. marcescens A20019; A20019, inoculum 10^-4
  MIC: > 125 µg/mL
Ser. marcescens A20019; A20019, inoculum 10^-4, read-out: MIC
  MIC: 63 µg/mL (≈ 136 µM)
Pr. mirabilis A9900
  MIC: 0.5 µg/mL (≈ 1.08 µM)
S. aureus Smith A9537; Staphylococcus aureus, SMITHA9537, inoculum 10^-4, read-out: MIC
  MIC: 4 µg/mL
S. aureus Smith A9537; inoculum 10^-4
  MIC: 2 µg/mL
